Test results from ChEMBL document CHEMBL2157915, “Identification of a Natural Product Antagonist against the Botulinum Neurotoxin Light Chain Protease” (ACS Med Chem Lett, 2010).
pEC50, pIC50, pKi: −log10 of the molar value. Calls of active or inactive are those of the source. The rule behind the calls is not given here.

How the values were obtained:
[1] = molecular target: Botulinum neurotoxin type A (Clostridium botulinum) (UniProt P0DPI0); conditions: 150 uM
[2] = molecular target: T1, Botulinum neurotoxin type A (Clostridium botulinum, UniProt P0DPI0)
[3] = molecular target: Botulinum neurotoxin type A (Clostridium botulinum) (UniProt P0DPI0); conditions: 5 uM
[4] = molecular target: T1, Botulinum neurotoxin type A; remark: listed apart in the source
[5] = molecular target: Botulinum neurotoxin type A (Clostridium botulinum) (UniProt P0DPI0); conditions: 90 uM
[6] = molecular target: T1, Botulinum neurotoxin type A; remark: listed apart in the source
[7] = molecular target: Botulinum neurotoxin type A (Clostridium botulinum) (UniProt P0DPI0)
[8] = molecular target: T1, Botulinum neurotoxin type A; remark: listed apart in the source
[9] = molecular target: Botulinum neurotoxin type A (Clostridium botulinum) (UniProt P0DPI0); conditions: 500 uM

T1 sequence (P0DPI0 2-448 limits assumed): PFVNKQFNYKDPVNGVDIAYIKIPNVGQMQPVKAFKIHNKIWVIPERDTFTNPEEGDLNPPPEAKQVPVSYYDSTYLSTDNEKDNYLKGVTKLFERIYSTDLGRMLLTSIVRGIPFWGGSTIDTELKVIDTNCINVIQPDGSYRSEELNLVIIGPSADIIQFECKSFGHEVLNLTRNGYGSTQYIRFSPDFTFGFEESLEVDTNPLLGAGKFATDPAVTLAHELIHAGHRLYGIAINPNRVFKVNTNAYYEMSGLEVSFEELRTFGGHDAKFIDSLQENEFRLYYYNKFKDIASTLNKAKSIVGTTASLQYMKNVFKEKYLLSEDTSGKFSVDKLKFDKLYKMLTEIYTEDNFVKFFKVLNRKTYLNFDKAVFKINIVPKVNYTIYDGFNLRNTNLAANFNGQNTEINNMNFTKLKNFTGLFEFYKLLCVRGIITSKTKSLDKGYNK
Botulinum neurotoxin type A (Clostridium botulinum), sequence (P0DPI0 2-448 limits assumed): as above

Row | Compound | inhibition [1] | pIC50 [2] | inhibition [3] | pEC50 [4] | inhibition [5] | pKi [6] | Ratio IC50 [7] | IC50 [8] | inhibition [9]
1 | COC(=O)c1ccc(O)c2nc3c(C=O)c(O)cc(O)c3nc12 [LOMOFUNGIN] | > 70% | ≤ 4.30 | Active | 3.88 | 10% | 5.17 | 20 |  | 
2 | Oc1cccc2cccnc12 [OXYQUINOLINE] |  |  |  |  |  |  |  | Not Active | inactive
